This passage reports IC50 results from patent publication US10544095B2 (Pfizer Inc., priority 2015, dated 2020).

Test [1] deals with human recombinant TDO2 enzyme (Homo sapiens (Human), UniProt P48775). The experiment in a line: Assay for TDO2 enzymatic activity determination. The format is biochemical. The following applies: human recombinant TDO2, L-Trp 1 mM, kynurenine absorbance at 480 nm. Here is the method: The compounds of formula I, its subformulae, and enantiomers, salts and solvates thereof, are useful to inhibit the enzymatic activity of human TDO2. To measure the TDO2 activity, the procedure described in Dolusic et al. J. Med. Chem.; 2011, 54, […] was adapted: the reaction mixture contained (final concentrations) potassium phosphate buffer (50 mM, pH 7.5), ascorbic acid ([…]), methylene blue (0.125 μM), catalase (40 units/mL, from bovine liver, Sigma), and human recombinant TDO2 enzyme (prepared as described in Dolusic et al. J. Med. Chem.; 2011, 54, 5320-5334; 0.9 μg) without or with the compounds of the present invention at the indicated concentrations (total volume 112.5 μL). The reaction was initiated by the addition of 37.5 μL of L-Trp (final concentration 1 mM) at room temperature. The reaction was conducted at room temperature during one hour and stopped by the addition of 30 μL of 30% (w/v) trichloroacetic acid. To convert N-formylkynurenine into kynurenine, the reaction mixture was incubated at 65° C. for 30 min. […] Kynurenine concentrations were determined by measuring the absorbance at 480 nm. A standard curve was made with pure kynurenine. The TDO activity was measured as described above using ten serial concentrations of the compounds of the present invention. Data were fitted using the Prism™ software (GraphPad Software, Inc.) using standard parameters.
Sequence of human recombinant TDO2 enzyme (P48775 whole entry): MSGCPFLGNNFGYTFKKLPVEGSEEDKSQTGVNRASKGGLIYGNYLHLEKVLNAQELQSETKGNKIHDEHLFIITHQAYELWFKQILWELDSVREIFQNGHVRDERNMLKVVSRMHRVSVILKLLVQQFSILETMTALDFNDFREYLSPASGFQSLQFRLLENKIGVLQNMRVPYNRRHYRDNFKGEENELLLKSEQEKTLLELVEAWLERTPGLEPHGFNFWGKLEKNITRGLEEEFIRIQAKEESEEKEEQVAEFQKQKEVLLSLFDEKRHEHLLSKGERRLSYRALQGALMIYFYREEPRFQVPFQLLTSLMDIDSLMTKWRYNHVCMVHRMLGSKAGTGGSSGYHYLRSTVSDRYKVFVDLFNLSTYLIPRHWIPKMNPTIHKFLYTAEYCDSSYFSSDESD

Test [2] deals with hTDO2 in human glioblastoma A172 cells (Homo sapiens (Human), UniProt P48775). Nature of the test: Cellular assay for TDO2 activity determination in A172 cells. The format is cell-based. The following applies: overnight incubation, kynurenine absorbance at 480 nm. The procedure, abridged:
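Glioblastoma A172 cells with endogenous hTDO2, 1.25×10^4 cells/well, incubated overnight at 37° C. with ten serial compound concentrations in IMDM with 2% FBS. Supernatant kynurenine, after TCA precipitation and 4-(dimethylamino)-benzaldehyde reaction, read at 480 nm against kynurenine standard curve; data curve-fitted.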

Sequence of hTDO2 in human glioblastoma A172 cells (P48775 whole entry): as above

With `O=S(=O)(c1ccc(-c2c[nH]c3cc(F)ccc23)cc1)N1CCOCC1` [Example 5, 4-((4-(6-fluoro-1H-indol-3-yl)phenyl)sulfonyl)morpholine], the values for the concentration for half-maximal inhibition (IC50) in test [1] and in test [2] were 4700 nM and 250 nM, respectively.

For the molecule `CS(=O)(=O)NCCNS(=O)(=O)c1ccc(-c2c[nH]c3cc(F)ccc23)cc1` [Example 21, 4-(6-fluoro-1H-indol-3-yl)-N-(2-(methylsulfonamido)-ethyl)benzenesulfonamide], the IC50 was determined as 740 nM in test [1] and 120 nM in test [2].

Consider `NS(=O)(=O)c1cccc(-c2c[nH]c3cc(F)ccc23)c1` [Example 10, 3-(6-fluoro-1H-indol-3-yl)benzenesulfonamide], for which the IC50 in test [1] came to 2400 nM; in test [2] it was 83 nM.

For the molecule `NCCNC(=O)c1ccc(-c2c[nH]c3cc(F)ccc23)cc1` [Example 2, N-(2-aminoethyl)-4-(6-fluoro-1H-indol-3-yl)benzamide], the half-maximal inhibitory concentration (IC50) in test [1] was determined as 1100 nM; in test [2], 150 nM.

For `NS(=O)(=O)c1ccc(-c2c[nH]c3cc(F)ccc23)cc1` [Example 6, 4-(6-fluoro-1H-indol-3-yl)benzenesulfonamide], the results for the 50% inhibitory concentration (IC50) in test [1] and in test [2] were 1000 nM and 82 nM, respectively.

Consider `O=S(=O)(c1c(Cl)cc(-c2c[nH]c3cc(F)ccc23)cc1Cl)N1CCNCC1` [Example 76, 3-(3,5-dichloro-4-(piperazin-1-ylsulfonyl)phenyl)-6-fluoro-1H-indole], for which the results for the IC50 in test [1] and in test [2] were 470 nM and 833 nM, respectively.

Take `O=S(=O)(c1ccc(-c2c[nH]c3cc(F)ccc23)cc1)N1CCNCC1` [Example 4, 6-fluoro-3-(4-(piperazin-1-ylsulfonyl)phenyl)-1H-indole]: the 50% inhibitory concentration (IC50) was 2100 nM in test [1] and 130 nM in test [2].

As for `O=S(=O)(c1ccc(-c2c[nH]c3cc(F)ccc23)cc1O)N1CCNCC1` [Example 35, 5-(6-fluoro-1H-indol-3-yl)-2-(piperazin-1-ylsulfonyl)phenol], the half-maximal inhibitory concentration (IC50) in test [1] is 420 nM; in test [2] it was 330 nM.

Consider `O=S(=O)(c1ccc(-c2c[nH]c3cc(F)ccc23)cc1)N1CC[C@@H](O)C1` [Example 77, (R)-1-((4-(6-fluoro-1H-indol-3-yl)phenyl)sulfonyl)-pyrrolidin-3-ol], for which the IC50 stood at 170 nM in test [1] and 55 nM in test [2].

With `C[C@H](CO)NS(=O)(=O)c1ccc(-c2c[nH]c3cc(F)ccc23)cc1` [Example 96, 4-(6-fluoro-1H-indol-3-yl)-N-[(2R)-1-hydroxypropan-2-yl]benzenesulfonamide], the half-inhibitory concentration (IC50) in test [1] came to 1000 nM; in test [2], 160 nM.

On to `CN(CCS(N)(=O)=O)S(=O)(=O)c1ccc(-c2c[nH]c3cc(F)ccc23)cc1` [Example 98, 4-(6-fluoro-1H-indol-3-yl)-N-methyl-N-(2-sulfamoylethyl)benzenesulfonamide], for which the concentration for half-maximal inhibition (IC50) amounted to 910 nM in test [1] and 250 nM in test [2].

On to `NC(=O)[C@H]1C[C@@H](NS(=O)(=O)c2ccc(-c3c[nH]c4cc(F)ccc34)cc2)C1` [Example 95, (cis)-3-(4-(6-fluoro-1H-indol-3-yl)phenylsulfon-amido)cyclobutanecarboxamide], for which the IC50 was 1300 nM in test [1] and 140 nM in test [2].

`CN1CC(CNS(=O)(=O)c2ccc(-c3c[nH]c4cc(F)ccc34)cc2)OCC1=O` (stereo not shown) [Example 86, 4-(6-fluoro-1H-indol-3-yl)-N-[(4-methyl-5-oxomorpholin-2-yl)methyl]benzenesulfonamide]: the figures for the concentration for half-maximal inhibition (IC50) in test [1] and in test [2] were 1300 nM and 260 nM, respectively.

For the molecule `O=C1CCN(S(=O)(=O)c2ccc(-c3c[nH]c4cc(F)ccc34)cc2)CCN1` [Example 90, 1-((4-(6-fluoro-1H-indol-3-yl)phenyl)sulfonyl)-1,4-diazepan-5-one], the figures for the IC50 in test [1] and in test [2] were 2000 nM and 130 nM, respectively.

Take `O=S(=O)(NCCn1cncn1)c1ccc(-c2c[nH]c3cc(F)ccc23)cc1` [Example 99, 4-(6-fluoro-1H-indol-3-yl)-N-[2-(1H-1,2,4-triazol-1-yl)-ethyl]benzenesulfonamide]: the IC50 in test [1] is 1100 nM; in test [2] it was 300 nM.

In the case of `NC(=O)COC1CCN(S(=O)(=O)c2ccc(-c3c[nH]c4cc(F)ccc34)cc2)CC1` [Example 84, 2-[(1-{[4-(6-fluoro-1H-indol-3-yl)phenyl]sulfonyl}piperidin-4-yl)-oxy]acetamide], the IC50 in test [1] amounted to 1900 nM; in test [2] it was 260 nM.

With `O=S(=O)(c1cccc(-c2c[nH]c3cc(F)ccc23)c1)N1CCNCC1` [Example 7, 6-fluoro-3-(3-(piperazin-1-ylsulfonyl)phenyl)-1H-indole], the values for the 50% inhibitory concentration (IC50) in test [1] and in test [2] were 4400 nM and 340 nM, respectively.

As to `O=C1CN(S(=O)(=O)c2ccc(-c3c[nH]c4cc(F)ccc34)cc2)CCN1` [Example 40, 4-((4-(6-fluoro-1H-indol-3-yl)phenyl)sulfonyl)piperazin-2-one], the IC50 in test [1] stood at 930 nM; in test [2], 170 nM.

For the molecule `O=S(=O)(c1ccc(-c2c[nH]c3cc(F)ccc23)cc1)N1C[C@@H](O)[C@@H](O)C1` [Example 58, (cis)-1-((4-(6-fluoro-1H-indol-3-yl)phenyl)sulfonyl)-pyrrolidine-3,4-diol], the values for the IC50 in test [1] and in test [2] were 530 nM and 130 nM, respectively.

Take `Cc1cc(-c2c[nH]c3cc(F)ccc23)ccc1S(=O)(=O)N1CCNCC1` [Example 34, 6-fluoro-3-(3-methyl-4-(piperazin-1-ylsulfonyl)-phenyl)-1H-indole]: the half-maximal inhibitory concentration (IC50) in test [1] worked out at 520 nM; in test [2], 290 nM.

Regarding `NCCNS(=O)(=O)c1cc(-c2c[nH]c3cc(F)ccc23)ccc1Cl` [Example 36, N-(2-aminoethyl)-2-chloro-5-(6-fluoro-1H-indol-3-yl)-benzenesulfonamide], the IC50 came out at 770 nM in test [1] and 430 nM in test [2].

Take `CNC(=O)CCNS(=O)(=O)c1ccc(-c2c[nH]c3cc(F)ccc23)cc1` [Example 50, 3-(4-(6-fluoro-1H-indol-3-yl)phenylsulfonamido)-N-methylpropanamide]: the concentration for half-maximal inhibition (IC50) in test [1] turned out to be 960 nM; in test [2], 110 nM.

As for `O=S(=O)(c1ccc(-c2c[nH]c3cc(F)ccc23)cc1)N1CC[C@H](O)C1` [Example 79, (S)-1-((4-(6-fluoro-1H-indol-3-yl)phenyl)sulfonyl)-pyrrolidin-3-ol], the IC50 is 120 nM in test [1] and 94 nM in test [2].

Consider `O=C(c1ccc(-c2c[nH]c3cc(F)ccc23)cc1)N1CCNCC1` [Example 3, (4-(6-fluoro-1H-indol-3-yl)phenyl)(piperazin-1-yl)methanone], for which the IC50 was 2100 nM in test [1] and 110 nM in test [2].

With `N#Cc1cc(-c2c[nH]c3cc(F)ccc23)ccc1S(=O)(=O)N1CCNCC1` [Example 32, 5-(6-Fluoro-1H-indol-3-yl)-2-(piperazine-1-sulfonyl)-benzonitrile], the half-inhibitory concentration (IC50) in test [1] stood at 730 nM; in test [2] it was 170 nM.

On to `O=S1(=O)CCC(NS(=O)(=O)c2ccc(-c3c[nH]c4cc(F)ccc34)cc2)C1` (stereo not shown) [Example 87, N-(1,1-dioxidotetrahydrothiophen-3-yl)-4-(6-fluoro-1H-indol-3-yl)-benzenesulfonamide], for which the IC50 worked out at 930 nM in test [1] and 170 nM in test [2].

For `CS(=O)(=O)CCNS(=O)(=O)c1ccc(-c2c[nH]c3cc(F)ccc23)cc1` [Example 88, 4-(6-fluoro-1H-indol-3-yl)-N-[2-(methylsulfonyl)ethyl]-benzene-sulfonamide], the half-inhibitory concentration (IC50) in test [1] was found to be 940 nM; in test [2] it was 95 nM.

As to `N[C@H]1CN(S(=O)(=O)c2ccc(-c3c[nH]c4cc(F)ccc34)cc2)C[C@@H]1F` [Example 80, (3S,4 S)-4-fluoro-1-{[4-(6-fluoro-1H-indol-3-yl)phenyl]sulfonyl}pyrrolidin-3-amine], the IC50 was determined as 900 nM in test [1] and 170 nM in test [2].

As for `C[C@@H](O)CNS(=O)(=O)c1ccc(-c2c[nH]c3cc(F)ccc23)cc1` [Example 93, (−)-(R)-4-(6-fluoro-1H-indol-3-yl)-N-(2-hydroxypropyl)-benzenesulfonamide], the 50% inhibitory concentration (IC50) was 550 nM in test [1] and 200 nM in test [2].

Take `O=S(=O)(c1ccc(-c2c[nH]c3cc(F)ccc23)cc1)N1CCC(O)(c2cncnc2)C1` (stereo not shown) [Example 120, 1-((4-(6-fluoro-1H-indol-3-yl)phenyl)sulfonyl)-3-(pyrimidin-5-yl)pyrrolidin-3-ol]: the IC50 in test [1] and in test [2] was 120 nM throughout.

Take `CS(=O)(=O)c1ccc(-c2c[nH]c3cc(F)ccc23)cc1` [Example 1, 6-Fluoro-3-(4-methanesulfonyl-phenyl)-1H-indole]: the values for the IC50 in test [1] and in test [2] were 1500 nM and 84 nM, respectively.

For `NCCNS(=O)(=O)c1ccc(-c2c[nH]c3cc(F)ccc23)cc1` [Example 8, N-(2-aminoethyl)-4-(6-fluoro-1H-indol-3-yl)-benzenesulfonamide], the IC50 in test [1] stood at 890 nM; in test [2], 95 nM.
